# “Also recorded” adds a separate entry of the source.
# How the values were obtained:
# A. caccae_lah [1] = assay: In vitro fermentation in PY broth, monoculture growth (OD600); assay type: cell-based, Anaerostipes caccae; details: 48 h; for Growth of A. caccae_lah / Growth of A. caccae_lah (OD600): monoculture; for Growth of A. caccae_lah: PY broth supplemented with 33 mM acetate and/or 40 mM lactate; for Growth of A. caccae_lah (OD600): PY broth supplemented with 10 mg/ml carbohydrates
# Method: (§1) This method of preculture is used for all future in vitro fermentation experiments. Then 10 μl of preculture was transferred into 7 mL minimal peptone yeast (PY) broth alone or supplemented with 10 mg/ml of glucose, sucrose, lactose, cellobiose, or potato starch. All of these variations of PY were pre-reduced anaerobically prepared by Anaerobe Systems. Growth and butyrate production were measured after 48 h. […] Butyrate in solution is quantified by HPLC-UV-Vis as described in reference 61 and 62. […] These simple sugars are similar to those found in infant formula. […] These are the same formulas consumed by the healthy (Enfamil®) and CMA (Nutramigen®) infant donors and are also consumed by all mice colonized with these respective microbiomes. […] All groups were analyzed by one way ANOVA. *P<0.05, **P<0.01, ***P<0.001, ****P<0.0001 versus PY.
# (§2) Other groups have shown that primary degraders, namely Bacteroides species, break down complex fibers and produce metabolites lactate and acetate which Clostridia species can then consume to produce butyrate (59). […] Growth and butyrate production were measured after 48 h. […] All groups were analyzed by one way ANOVA. *P<0.05, **P<0.01, ***P<0.001, ****P<0.0001 versus PY alone.
# A. caccae_lah [2] = assay: In vitro fermentation in PY broth, monoculture butyrate production (HPLC-UV-Vis); assay type: cell-based, Anaerostipes caccae; details: for lactate or acetate in the media at 48 h: A. caccae_lah monoculture, Nutramigen plus 40 mM lactate+33 mM acetate; for butyrate production by A. caccae_lah: monoculture, PY broth supplemented with 10 mg/ml carbohydrates, 48 h
# Method: as §1, §2
# A. caccae_lah [3] = assay: Antibiotic susceptibility by growth inhibition around antibiotic discs; assay type: cell-based, Anaerostipes caccae; details: discs 10 μg ampicillin, 30 μg tetracycline; BHI agar, 37° C. anaerobic, six days
# Method: Plates are incubated at 37° C. in anaerobic conditions for six days.
# [4] = system: BLG plus CT sensitized mice, anaphylactic response to BLG challenge; assay type: in vivo, C3H/HeN mice
# BLG-specific IgE = assay: Serum BLG-specific IgE ELISA after challenge; assay type: in vivo, mouse; details: A. caccae monocolonized vs CMA colonized mice
# Description: (§3) Food allergen sensitization and challenge. Protocols were adapted from reference 7. All mice were weaned onto a plant-based mouse chow (Purina Lab Diet® 5K67) at 3 weeks of age. GF mice received autoclaved sterile water. For mice colonized with feces from infant donors, or monocolonized with A. caccae, the drinking water was replaced by formula four hours prior to colonization. Mice colonized with healthy feces or A. caccae received Enfamil®; CMA colonized mice received Nutramigen® (both from Mead Johnson). On day 0, one week post weaning (GF) or colonization (healthy/A. caccae/CMA), all mice were fasted for 4 hours and then given a gavage of 200 mM sodium bicarbonate. 30 minutes later, mice were given 20 mg BLG (Sigma) plus 10 μg CT (List Biologicals). This protocol was repeated weekly for 5 weeks. For formula-fed mice, formula was replaced by sterile water for the week after the last sensitization. Prior to challenge on day 42, mice were fasted for 4 hours and given sodium bicarbonate by gavage. Two doses of 100 mg BLG each were then administered via intragastric gavage 30 minutes apart. Core body temperature was measured in a blinded fashion prior to allergen challenge and every 5 minutes after the first challenge until at least 30 minutes after the second challenge using a rectal probe (PhysiTemp). Serum was collected 1 hour after the second challenge to measure mMCPT-1 levels.
# BLG-specific IgG1 = assay: Serum BLG-specific IgG1 ELISA after challenge; assay type: in vivo, mouse; details: A. caccae monocolonized vs CMA colonized mice
# Description: as §3
# mMCPT-1 = assay: Serum mMCPT-1 ELISA 1 hour after second challenge; assay type: in vivo, mouse; details: A. caccae monocolonized compared to CMA colonized mice
# Description: as §3
# IL-13 = assay: Splenocyte cytokine ELISA after BLG stimulation (IL-13); assay type: cell-based, mouse; details: sacrificed 24 h post challenge, stimulated 72 h with BLG; A. caccae vs CMA colonized
# Method: (§4) For cytokine analysis spleens were harvested 24 h post challenge from A. caccae or CMA colonized mice sensitized with BLG+CT for 5 weeks. Splenocytes were stimulated at a concentration of 2×10^6 cells/ml at 37° C., 10% CO2 with 10 mg/ml BLG (Sigma) in cDMEM (with 4% FCS (HyClone), 10 mM HEPES (Gibco), 100 U/ml Penicillin/Streptomycin (Gibco) and 55 μM 2-mercaptoethanol (Gibco). Cytokine concentrations in 72 hr culture supernatants were determined by ELISA for IL-13 and IL-4 (both from Invitrogen).
# IL-4 = assay: Splenocyte cytokine ELISA after BLG stimulation (IL-4); assay type: cell-based, mouse; details: sacrificed 24 h post challenge, stimulated 72 h with BLG; A. caccae vs CMA colonized
# Method: as §4
# [5] = system: Ror2, Fbp1, Tgfbr3, Acot12 and Me1 in ileal IECs; assay: qPCR gene expression in ileal IECs; assay type: in vivo, mouse; details: A. caccae monocolonized compared to GF or CMA-colonized mice
# Method: Epithelial cell isolation. As in sensitization experiments, mice were weaned at 3 weeks of age and placed on infant formula prior to colonization. Seven days after colonization, mice were euthanized and ileum was removed. For IEC isolation, tissues were cleaned and inverted as described in ref (43). IECs were collected by inflating inverted tissue in Cell Recovery Solution (Corning) every 5 minutes for 30 minutes. IEC samples were lysed in TRIZol (ThermoFisher) and RNA was extracted with PureLink RNA Mini Kit (Ambion) plus on-column DNAse treatment (PureLink DNAse Set, Ambion).
# qPCR. Gene expression was measured by qPCR as described in reference 7. In brief, cDNA was prepared from RNA using the iScript cDNA Synthesis kit (BioRad). Gene expression was measured with PowerUp SYBR green master mix (Applied Biosystems) according to the manufacturer's instructions. Primers are listed in Supplementary Table 7 (20, 50-54). Expression of genes of interest was normalized to Hprt. Relative expression was measured using ΔΔCt centered around the geometric mean; GF mice were used as a reference.
compound,measurement,setting,value
CC(=O)O [acetate],Growth of A. caccae_lah,A. caccae_lah [1],significant growth
same,lactate or acetate in the media at 48 h,A. caccae_lah [2],no detectable
CC1(C)S[C@@H]2[C@H](NC(=O)[C@H](N)c3ccccc3)C(=O)N2[C@H]1C(=O)O [ampicillin],antibiotic susceptibility of A. caccae_lah (zone of clearance),A. caccae_lah [3],highly susceptible
O=C[C@H](O)[C@@H](O)[C@H](O[C@@H]1O[C@H](CO)[C@@H](O)[C@H](O)[C@H]1O)[C@H](O)CO [cellobiose],butyrate production by A. caccae_lah,A. caccae_lah [2],not able to produce significant butyrate
CC(O)C(=O)O (centres unmarked) [lactate],Growth of A. caccae_lah,A. caccae_lah [1],significant growth
same,lactate or acetate in the media at 48 h,A. caccae_lah [2],no detectable
OC[C@H]1O[C@@H](O[C@H]2[C@H](O)[C@@H](O)C(O)O[C@@H]2CO)[C@H](O)[C@@H](O)[C@H]1O (some centres unmarked) [lactose],fermentation by A. caccae_lah in monoculture,A. caccae_lah [1]; minimal PY broth supplemented with 10 mg/ml carbohydrates,can ferment
same,Growth of A. caccae_lah (OD600),A. caccae_lah [1],grew abundantly
same,butyrate production by A. caccae_lah,A. caccae_lah [2],produced the most butyrate
OC[C@H]1O[C@@](CO)(O[C@H]2O[C@H](CO)[C@@H](O)[C@H](O)[C@H]2O)[C@@H](O)[C@@H]1O [sucrose],Growth of A. caccae_lah (OD600),A. caccae_lah [1],grew abundantly
same,butyrate production by A. caccae_lah,A. caccae_lah [2],produced the most butyrate
Anaerostipes caccae [A. caccae],changes in core body temperature after BLG challenge,[4]; A. caccae monocolonized compared to CMA colonized mice,significantly reduced
same,anaphylactic response to BLG challenge,[4]; BLG plus CT sensitized A. caccae monocolonized mice,protected against an anaphylactic response to BLG challenge; also recorded: protects against an allergic response to food
same,serum BLG-specific IgE,BLG-specific IgE,reduced
same,serum BLG-specific IgG1,BLG-specific IgG1,reduced
same,serum concentrations of mMCPT-1,mMCPT-1,significantly reduced
same,IL-13 in culture supernatants of splenocytes,IL-13,reduced
same,IL-4 in culture supernatants of splenocytes,IL-4,reduced
same,Fbp1 gene expression in ileal IECs (qPCR),[5],significantly upregulated
same,Tgfbr3 gene expression in ileal IECs (qPCR),[5],significantly upregulated
